Assay results from ChEMBL document CHEMBL1145006 (J Med Chem, 2003).
Starred links: 1 amine or outer side, 2 acyl side, 3 side chain; linkers in the order of their positions; H or OH if unused. Positions of bridges follow the written chain, without caps; N, C: chain ends. Non-standard residues stand in square brackets, D forms with d. Residues, ends and D or L forms follow the SMILES beside them. Groups on a side chain read outwards from the residue. *: point of attachment. Ethylenediamine = C(CN[*:2])N[*:1]; Hyp = O=C(O)[C@@H]1C[C@@H](O)CN1; Phg = N[C@H](C(=O)O)c1ccccc1; CO = O=C([*:1])[*:2]; Bn = c1ccc(C*)cc1

Experiments:
[1] = species: Rattus norvegicus; assay: In vitro inhibition of GHRH induced GH release in primary cultures of rat pituitary cells; type: functional, cell-based; conditions: Pituitary gland cell
[2] = biological target: Somatostatin receptor type 4 (Homo sapiens, UniProt P31391); assay: Binding affinity towards human Somatostatin receptor type 4 (sst4) using Tyr11-[125I]-SRIF as radioligand was determined in CHO cells; type: cell-based; conditions: for Log Ki: cho
[3] = biological target: Somatostatin receptor type 5 (Homo sapiens, UniProt P35346); assay: Binding affinity towards human Somatostatin receptor type 5 (sst5) using Tyr11-[125I]-SRIF as radioligand was determined in COS cell; type: cell-based
[4] = biological target: Somatostatin receptor type 2 (Homo sapiens, UniProt P30874); assay: Binding affinity towards human Somatostatin receptor type 2 (sst2) using Tyr11-[125I]-SRIF as radioligand was determined in CHO cells; type: cell-based
[5] = biological target: Somatostatin receptor type 3 (Homo sapiens, UniProt P32745); assay: Binding affinity towards human Somatostatin receptor type 3 (sst3) using Tyr11-[125I]-SRIF as radioligand was determined in CHO cells; type: cell-based
[6] = biological target: Somatostatin receptor type 1 (Homo sapiens, UniProt P30872); assay: Binding affinity towards human Somatostatin receptor type 1 (sst1) using Tyr11-[125I]-SRIF as radioligand was determined in CHO cells; type: cell-based
Somatostatin receptor type 1, sequence (P30872 whole entry): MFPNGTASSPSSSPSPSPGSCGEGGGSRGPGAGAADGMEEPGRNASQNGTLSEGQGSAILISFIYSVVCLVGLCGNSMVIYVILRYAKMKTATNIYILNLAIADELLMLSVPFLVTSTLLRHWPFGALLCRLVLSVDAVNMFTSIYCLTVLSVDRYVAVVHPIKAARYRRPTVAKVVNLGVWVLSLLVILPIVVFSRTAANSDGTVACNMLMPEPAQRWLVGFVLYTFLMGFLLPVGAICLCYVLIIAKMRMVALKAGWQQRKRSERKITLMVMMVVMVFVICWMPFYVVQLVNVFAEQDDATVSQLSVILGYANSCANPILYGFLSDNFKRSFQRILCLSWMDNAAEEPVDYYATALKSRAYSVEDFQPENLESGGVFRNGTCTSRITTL

Somatostatin receptor type 3, sequence (P32745 whole entry): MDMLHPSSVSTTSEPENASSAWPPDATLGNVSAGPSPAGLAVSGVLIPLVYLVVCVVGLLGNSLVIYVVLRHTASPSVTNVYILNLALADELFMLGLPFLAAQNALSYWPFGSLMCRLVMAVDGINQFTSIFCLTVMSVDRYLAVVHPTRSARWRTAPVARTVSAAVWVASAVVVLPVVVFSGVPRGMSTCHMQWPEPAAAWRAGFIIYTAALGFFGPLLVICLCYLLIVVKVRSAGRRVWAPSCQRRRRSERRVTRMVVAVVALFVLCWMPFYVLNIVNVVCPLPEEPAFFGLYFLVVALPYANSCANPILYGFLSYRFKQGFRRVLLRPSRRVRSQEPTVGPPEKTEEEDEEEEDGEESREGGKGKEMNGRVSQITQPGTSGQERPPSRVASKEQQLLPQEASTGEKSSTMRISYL
Somatostatin receptor type 2, sequence (P30874 whole entry): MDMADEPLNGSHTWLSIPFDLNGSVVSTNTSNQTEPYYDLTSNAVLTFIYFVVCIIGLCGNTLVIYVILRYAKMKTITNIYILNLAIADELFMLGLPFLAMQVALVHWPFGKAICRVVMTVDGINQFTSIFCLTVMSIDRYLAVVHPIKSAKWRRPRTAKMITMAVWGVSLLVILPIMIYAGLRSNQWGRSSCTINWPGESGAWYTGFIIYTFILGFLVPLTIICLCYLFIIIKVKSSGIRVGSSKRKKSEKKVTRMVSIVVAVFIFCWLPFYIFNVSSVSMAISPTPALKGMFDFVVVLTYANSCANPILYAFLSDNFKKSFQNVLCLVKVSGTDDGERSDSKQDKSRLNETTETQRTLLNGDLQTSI
Somatostatin receptor type 5, sequence (P35346 whole entry): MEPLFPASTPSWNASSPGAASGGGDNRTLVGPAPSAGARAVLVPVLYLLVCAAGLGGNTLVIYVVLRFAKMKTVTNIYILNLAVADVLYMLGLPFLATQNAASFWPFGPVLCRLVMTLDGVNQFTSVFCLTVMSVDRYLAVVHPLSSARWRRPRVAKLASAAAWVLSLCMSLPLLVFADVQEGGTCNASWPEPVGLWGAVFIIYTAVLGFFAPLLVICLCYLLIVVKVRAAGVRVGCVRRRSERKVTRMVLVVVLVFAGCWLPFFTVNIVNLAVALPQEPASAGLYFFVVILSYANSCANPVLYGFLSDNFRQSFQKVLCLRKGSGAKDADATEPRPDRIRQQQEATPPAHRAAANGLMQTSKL
Somatostatin receptor type 4, sequence (P31391 whole entry): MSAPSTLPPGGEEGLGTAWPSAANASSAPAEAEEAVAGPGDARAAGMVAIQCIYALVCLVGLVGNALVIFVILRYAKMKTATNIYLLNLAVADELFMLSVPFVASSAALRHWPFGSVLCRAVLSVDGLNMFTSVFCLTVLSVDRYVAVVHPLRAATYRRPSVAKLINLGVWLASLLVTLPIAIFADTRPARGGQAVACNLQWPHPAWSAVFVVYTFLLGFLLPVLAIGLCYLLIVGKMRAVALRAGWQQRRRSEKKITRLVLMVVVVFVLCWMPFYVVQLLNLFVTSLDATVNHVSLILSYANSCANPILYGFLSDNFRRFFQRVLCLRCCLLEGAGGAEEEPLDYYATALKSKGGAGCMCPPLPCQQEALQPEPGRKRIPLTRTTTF

| SMILES | IC50 [1] [nM] | Log Ki [2] | Ki [3] [nM] | Ki [4] [nM] | Ki [5] [nM] | Ki [6] [nM] | Ki [2] [nM] |
| --- | --- | --- | --- | --- | --- | --- | --- |
| C[C@H](N)C(=O)NCC(=O)N[C@H]1CSSC[C@@H](C(N)=O)NC(=O)[C@H](CO)NC(=O)[C@H]([C@@H](C)O)NC(=O)[C@H](C)NC(=O)[C@H]([C@@H](C)O)NC(=O)[C@H](CCCCN)NC(=O)[C@H](Cc2c[nH]c3ccccc23)NC(=O)[C@H](Cc2ccccc2)NC(=O)[C@H](Cc2ccccc2)NC(=O)[C@H](CC(N)=O)NC(=O)[C@H](CCCCN)NC1=O (H-AGCKNFFWKTATSC-NH2; disulfide 3-14) | – | > -9 | 6.31 | 6.31 | 7.94 | 0.631 | – |
| C[C@H](N)C(=O)NCC(=O)N[C@H]1CSSC[C@@H](C(N)=O)NC(=O)[C@H](CO)NC(=O)[C@H]([C@@H](C)O)NC(=O)[C@H](Cc2ccccc2)NC(=O)[C@H]([C@@H](C)O)NC(=O)[C@H](CCCCN)NC(=O)[C@H](C)NC(=O)[C@H](Cc2ccccc2)NC(=O)[C@H](Cc2ccccc2)NC(=O)[C@H](CC(N)=O)NC(=O)[C@H](CCCCN)NC1=O (H-AGCKNFFAKTFTSC-NH2; disulfide 3-14) | – | – | 79.4 | 1000 | 1000 | 1000 | > 1000 |
| C[C@H](N)C(=O)NCC(=O)N[C@H]1CSSC[C@@H](C(N)=O)NC(=O)[C@H](CO)NC(=O)[C@H]([C@@H](C)O)NC(=O)[C@H](Cc2ccccc2)NC(=O)[C@H]([C@@H](C)O)NC(=O)[C@H](CCCCN)NC(=O)[C@H](Cc2c[nH]c3ccccc23)NC(=O)[C@H](Cc2ccccc2)NC(=O)[C@H](C)NC(=O)[C@H](CC(N)=O)NC(=O)[C@H](CCCCN)NC1=O (H-AGCKNAFWKTFTSC-NH2; disulfide 3-14) | – | > -7.1 | 100 | 20 | 200 | 126 | – |
| NCCCC[C@@H]1NC(=O)[C@@H](Cc2c[nH]c3ccccc23)NC(=O)[C@H](Cc2c[nH]cn2)NC(=O)[C@@H]2C[C@@H](OC(=O)NCCN)CN2C(=O)[C@H](Cc2ccccc2)NC(=O)[C@H](Cc2ccc(OCc3ccccc3)cc2)NC1=O | – | > -7 | 3.16 | 0.794 | 0.794 | 3.98 | – |
| C[C@H](N)C(=O)N[C@@H](C)C(=O)N[C@H]1CSSC[C@@H](C(N)=O)NC(=O)[C@H](CO)NC(=O)[C@H]([C@@H](C)O)NC(=O)[C@H](Cc2ccccc2)NC(=O)[C@H]([C@@H](C)O)NC(=O)[C@H](CCCCN)NC(=O)[C@H](Cc2c[nH]c3ccccc23)NC(=O)[C@H](Cc2ccccc2)NC(=O)[C@H](Cc2ccccc2)NC(=O)[C@H](CC(N)=O)NC(=O)[C@H](CCCCN)NC1=O (H-AACKNFFWKTFTSC-NH2; disulfide 3-14) | – | > -9.7 | 1.26 | 0.158 | 0.794 | 0.2 | – |
| C[C@@H](O)[C@@H]1NC(=O)[C@H](CCCCN)NC(=O)[C@@H](Cc2c[nH]c3ccccc23)NC(=O)[C@H](Cc2ccccc2)NC(=O)[C@@H]2C[C@@H](O)CN2C(=O)[C@H](Cc2ccccc2)NC1=O (cyclo(F[Hyp]F[dW]KT)) | – | – | > 1000 | 0.2 | 200 | > 1000 | > 1000 |
| C[C@H](N)C(=O)NCC(=O)N[C@H]1CSSC[C@@H](C(N)=O)NC(=O)[C@H](CO)NC(=O)[C@H]([C@@H](C)O)NC(=O)[C@H](Cc2ccccc2)NC(=O)[C@H]([C@@H](C)O)NC(=O)[C@H](CCCCN)NC(=O)[C@H](Cc2c[nH]c3ccccc23)NC(=O)[C@H](C)NC(=O)[C@H](Cc2ccccc2)NC(=O)[C@H](CC(N)=O)NC(=O)[C@H](CCCCN)NC1=O (H-AGCKNFAWKTFTSC-NH2; disulfide 3-14) | – | > -8.7 | 79.4 | 20 | 25.1 | 20 | – |
| C[C@H](N)C(=O)NCC(=O)N[C@H]1CSSC[C@@H](C(N)=O)NC(=O)[C@H](C)NC(=O)[C@H]([C@@H](C)O)NC(=O)[C@H](Cc2ccccc2)NC(=O)[C@H]([C@@H](C)O)NC(=O)[C@H](CCCCN)NC(=O)[C@H](Cc2c[nH]c3ccccc23)NC(=O)[C@H](Cc2ccccc2)NC(=O)[C@H](Cc2ccccc2)NC(=O)[C@H](CC(N)=O)NC(=O)[C@H](CCCCN)NC1=O (H-AGCKNFFWKTFTAC-NH2; disulfide 3-14) | – | > -10 | 0.794 | 0.0794 | 0.631 | 0.158 | – |

The next compounds have a lower Ki [3] than those just listed; values first:

| IC50 [1] [nM] | Log Ki [2] | Ki [3] [nM] | Ki [4] [nM] | Ki [5] [nM] | Ki [6] [nM] | Ki [2] [nM] | SMILES |
| --- | --- | --- | --- | --- | --- | --- | --- |
| – | > -8.4 | 0.631 | 1 | 1.58 | 6.31 | – | C[C@H](N)C(=O)NCC(=O)N[C@H]1CSSC[C@@H](C(N)=O)NC(=O)[C@H](CO)NC(=O)[C@H]([C@@H](C)O)NC(=O)[C@H](Cc2ccccc2)NC(=O)[C@H](C)NC(=O)[C@H](CCCCN)NC(=O)[C@H](Cc2c[nH]c3ccccc23)NC(=O)[C@H](Cc2ccccc2)NC(=O)[C@H](Cc2ccccc2)NC(=O)[C@H](CC(N)=O)NC(=O)[C@H](CCCCN)NC1=O (H-AGCKNFFWKAFTSC-NH2; disulfide 3-14) |
| – | > -9.2 | 0.398 | 1.26 | 0.631 | 0.501 | – | C[C@H](N)C(=O)NCC(=O)N[C@H]1CSSC[C@@H](C(N)=O)NC(=O)[C@H](CO)NC(=O)[C@H](C)NC(=O)[C@H](Cc2ccccc2)NC(=O)[C@H]([C@@H](C)O)NC(=O)[C@H](CCCCN)NC(=O)[C@H](Cc2c[nH]c3ccccc23)NC(=O)[C@H](Cc2ccccc2)NC(=O)[C@H](Cc2ccccc2)NC(=O)[C@H](CC(N)=O)NC(=O)[C@H](CCCCN)NC1=O (H-AGCKNFFWKTFASC-NH2; disulfide 3-14) |
| – | – | 0.398 | 10 | 20 | 6.31 | 316 | NCCCC[C@@H]1NC(=O)[C@@H](Cc2c[nH]c3ccccc23)NC(=O)[C@H](CCCN=C(N)N)NC(=O)[C@@H]2C[C@@H](OC(=O)NCCN)CN2C(=O)[C@H](Cc2ccccc2)NC(=O)[C@H](Cc2ccc(OCc3ccccc3)cc2)NC1=O |
| – | – | 0.316 | 0.794 | 1.58 | 63.1 | 316 | NCCCC[C@@H]1NC(=O)[C@@H](Cc2c[nH]c3ccccc23)NC(=O)[C@H](Cc2ccccc2)NC(=O)[C@@H]2C[C@@H](O)CN2C(=O)[C@H](Cc2ccccc2)NC(=O)[C@H](Cc2ccc(OCc3ccccc3)cc2)NC1=O (cyclo(F[Hyp]F[dW]KY(Bn))) |
| – | > -9.7 | 0.158 | 0.126 | 0.631 | 0.251 | – | C[C@H](N)C(=O)NCC(=O)N[C@H]1CSSC[C@@H](C(N)=O)NC(=O)[C@H](CO)NC(=O)[C@H]([C@@H](C)O)NC(=O)[C@H](Cc2ccccc2)NC(=O)[C@H]([C@@H](C)O)NC(=O)[C@H](CCCCN)NC(=O)[C@H](Cc2c[nH]c3ccccc23)NC(=O)[C@H](Cc2ccccc2)NC(=O)[C@H](Cc2ccccc2)NC(=O)[C@H](C)NC(=O)[C@H](CCCCN)NC1=O (H-AGCKAFFWKTFTSC-NH2; disulfide 3-14) |
| 0.4 | > -7 | 0.126 | 1 | 0.794 | 6.31 | – | NCCCC[C@@H]1NC(=O)[C@@H](Cc2c[nH]c3ccccc23)NC(=O)[C@H](c2ccccc2)NC(=O)[C@@H]2C[C@@H](OC(=O)NCCN)CN2C(=O)[C@H](Cc2ccccc2)NC(=O)[C@H](Cc2ccc(OCc3ccccc3)cc2)NC1=O [PASIREOTIDE] (cyclo(F[Hyp]([CO-Ethylenediamine])[Phg][dW]KY(Bn))) |
| – | > -7 | 0.1 | 0.501 | 0.316 | 1.58 | – | CN(C)CCNC(=O)O[C@@H]1C[C@H]2C(=O)N[C@@H](Cc3ccccc3)C(=O)N[C@H](Cc3c[nH]c4ccccc34)C(=O)N[C@@H](CCCCN)C(=O)N[C@@H](Cc3ccc(OCc4ccccc4)cc3)C(=O)N[C@@H](Cc3ccccc3)C(=O)N2C1 |
